Consider 1 compound from patent publication US7662547B2, “Compositions and methods for detecting and treating HIV infections” (priority 2006, dated 2010).

One assay relates to T cells. Nature of the assay: Cell cycle analysis of T cells. Type of assay: cell-based, human.
In the next assay the test system is CD4/CXCR4 distribution. The assay is described as follows: Confocal microscopy of CD4 and CXCR4 distribution on resting CD4 T cells. Type of assay: cell-based, human. Particulars: 120 nM, 2 hours. An excerpt: Stained cells were imaged using a Zeiss Laser Scanning Microscope (Thornwood, N.Y.), LSM 510 META, with a 40 NA 1.3 or 60 NA 1.4 oil Dic Plan-Neofluar objective. Samples were excited with two laser lines, 488 nm for GFP and 543 nm for Alexa 594. Images were simultaneously recorded in three channels: channel one: fluorescent emissions from 505 to 530 nm for GFP (green); channel two: emissions from 580 to 650 nm for Alexa 594 (red); channel three: DIC. Images were processed and analyzed by the LSM 510 META software.
FIG. 8 illustrates confocal microscopy of CD4 and CXCR4 distribution on resting CD4 T cells treated with 120 nM Jas. Resting CD4 T cells were treated with 120 nM of Jas for 2 hours, then fixed and stained with a FITC-labeled anti-human CD4 monoclonal antibody and a biotin-labeled anti-human CXCR4 monoclonal antibody followed by Alexa Fluor-594 labeled streptavidin (right panel). Untreated resting CD4 T cells were used as a control (left panel).

A further assay deals with HIV-1. Nature of the assay: PCR amplification of intracellular viral late DNA (viral entry). Particulars: 120 nM. Type of assay: cell-based, HIV-1NL4-3. How it is done:
To remove plasmid DNA contamination, viral stock was treated with Benzonase (Novagen, Madison, WI) (250 U/ml) at […] for 15 min before infection. Total cellular DNA were purified using SV total RNA isolation kit as recommended by the manufacture (Promega, Madison, WI). For detection of viral late reverse transcription products by PCR, forward primer HIV/Tat-Rev-5’(5′[…] 3′; SEQ ID NO: 6) and reverse primer LTR-gag2 (5′[…] 3′; SEQ ID NO: 7) were used. PCR was carried out in 1× Ambion PCR buffer, 125 μM dNTP, 50 pmol each primer, 1U SuperTaq Plus (Ambion Inc. Austin, TX) with 30 cycles at 94° C. for 20 seconds, 68° C. for 60 seconds. For relative quantification, the cellular-actin pseudogene were co-amplified using QuantumRNA-actin Internal Standards (Ambion Inc. Austin, TX), with a ratio from 5/5 to 1/9 for actin primer/competitor.
Thus, the effect of Jas on T cell activity was determined. FIG. 3A illustrates inhibition of HIV-1 latent infection by Jas. Effects of Jas on LFA-1 activation also were tested. Jas treated or untreated resting T cells were activated by anti-CD3/CD28 bead and stained with human ICAM-1/Fc chimera and analyzed by flow cytometer. The effects of Jas on IL-2 secretion also were measured. […] Cells were treated with Jas for 2 hours, washed, infected with HIV-1 for 5 days, then activated by anti-CD3/CD28 bead. […]

Structures are written as SMILES.

Regarding `C/C1=C\[C@H](C)C[C@H](C)OC(=O)C[C@H](c2ccc(O)cc2)NC(=O)[C@@H](Cc2c(Br)[nH]c3ccccc23)N(C)C(=O)[C@H](C)NC(=O)[C@@H](C)C1` [Jas, Jasplakinolide], the cell cycle arrest result was “no cell cycle arrest” in the assay on T cells (120 nM) and “arrested cells in S phase” with T cells (3μM). Besides, the “CD4/CXCR4 distribution on the surface, treated vs untreated cells” value in the assay on CD4/CXCR4 distribution is “did not reveal any significant difference”. In the assay with HIV-1, the “intracellular viral DNA, treated vs untreated cells” value is “did not detect any difference”.
